Data from PubChem BioAssay AID602458 (NMMLSC, 2012).
In brackets after ≈: the same amount, converted by molar mass. Activity calls are given as the source filed them.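 How the source made its calls: active means compounds whose saturated solubility in pH 7.4 saline buffer exceeds 10 µg/mL; inactive means the rest.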

Tested on: 1xPBS pH 7.4 kinetic solubility, UV absorbance
Assay: kinetic aqueous solubility of hits, late-stage follow-up, ADME assay for GPR30 and estrogen receptor ligands, biophysical, 1xPBS, pH 7.4, UV absorbance (AID 602458)
Settings: active compounds read high

Row | solubility | SMILES
1 | 0.28 µg/mL (inactive) (≈ 0.858 µM) | COc1cc([N+](=O)[O-])cc2c1NC(C1CC=CCC1)C1CC=CC21 (configuration not stated)
2 | 0.14 µg/mL (inactive) (≈ 0.34 µM) | CC(=O)c1ccc2c(c1)[C@@H]1C=CC[C@@H]1[C@H](c1cc3c(cc1Br)OCO3)N2
